{"source": "ChEMBL document CHEMBL4706552", "about": "“Discovery of 4-methyl-N-(4-((4-methylpiperazin- 1-yl)methyl)-3-(trifluoromethyl)phenyl)-3-((6-(pyridin-3-yl)-1H-pyrazolo[3,4-d]pyrimidin-4-yl)-oxy)benzamide as a potent inhibitor of RET and its gatekeeper mutant” (Eur J Med Chem, 2020)", "key": {"BaF3 [1]": {"tested_on": "BaF3", "assay": "Antitumor activity against KIF5B-RET fusion protein expressing mouse BaF3 cells implanted in iv dosed BALB/c mouse assessed as tumor growth inhibition administered once daily for 7 days", "assay_type": "functional, organism-based", "details": "dose 30-50 mg/kg, time 7.0 day"}, "BaF3 [2]": {"tested_on": "BaF3", "assay": "Induction of apoptosis in KIF5B-RET V804M mutant fusion protein expressing mouse BaF3 cells implanted in BALB/c mouse assessed as increase in cleaved caspase-3 level at 30 to 50 mg/kg, iv administered once daily for 7 days measured 4 hrs post last dose by H and E staining based immunohistochemical analysis", "assay_type": "functional, organism-based", "details": "dose 30-50 mg/kg, time 7.0 day"}}, "note": "Activity calls are given as the source filed them. The calls are words filed in the database; no cut-off is given here.", "data": [{"molecule": "Cc1ccc(C(=O)Nc2ccc(CN3CCN(C)CC3)c(C(F)(F)F)c2)cc1Oc1nc(-c2cccnc2)nc2[nH]ncc12", "values": [{"measurement": "Activity", "setting": "BaF3 [1]", "result": "Dose-dependent effect"}, {"measurement": "Activity", "setting": "BaF3 [2]", "result": "Active"}]}]}
